Measurements: patent US10329302B2, “Bicyclic-fused heteroaryl or aryl compounds” (Pfizer Inc., priority 2014, dated 2019)
Like-named read-outs stand apart in the source and are kept apart here.

Key:
[1] = biological target: human IRAK4 FL (Full Length) (Homo sapiens (Human), UniProt Q9NWZ3); assay: IRAK4 Enzymatic DELFIA Assay, Protocol A; assay type: biochemical; details: human IRAK4 FL, 0.6 mM ATP (KM); read-out: IRAK4 DELFIA Protocol A IC50
[2] = tested on: R848-induced TNFα production by human peripheral blood mononuclear cells (PBMCs); assay: R848 Induced TNFα in Human PBMC Assay; assay type: cell-based
[3] = Homo sapiens, PBMC, 3 h, read-out: R848-induced TNFa PBMC IC50 (nM)
[4] = human PBMC, absence of serum, 3 hours, read-out: R848-induced TNFa PBMC IC50

Chain of human IRAK4 FL (Full Length) (Q9NWZ3 whole entry): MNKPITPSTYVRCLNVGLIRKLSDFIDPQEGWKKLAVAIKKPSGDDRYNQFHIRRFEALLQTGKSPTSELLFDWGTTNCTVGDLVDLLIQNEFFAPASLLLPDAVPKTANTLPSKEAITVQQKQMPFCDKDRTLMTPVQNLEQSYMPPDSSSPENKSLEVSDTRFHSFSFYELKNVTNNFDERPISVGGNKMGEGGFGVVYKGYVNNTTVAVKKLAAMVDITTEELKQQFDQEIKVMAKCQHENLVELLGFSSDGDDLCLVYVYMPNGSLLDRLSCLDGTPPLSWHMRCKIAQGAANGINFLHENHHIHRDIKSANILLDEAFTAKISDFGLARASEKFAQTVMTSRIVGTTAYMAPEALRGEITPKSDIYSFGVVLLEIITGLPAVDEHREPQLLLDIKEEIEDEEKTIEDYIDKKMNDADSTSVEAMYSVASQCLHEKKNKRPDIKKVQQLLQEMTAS

Row | SMILES | IC50 [1] [nM] | IC50 [2, 3] [nM] | IC50 [2, 4] [nM]
1 | COc1cc2c(OC[C@H]3NC(=O)C(F)[C@H]3C)ccc(F)c2cc1C(N)=O (stereo in doubt) [Example 220, 8-fluoro-5-{[(2S,3S,4S)-4-fluoro-3-methyl-5-oxopyrrolidin-2-yl]methoxy}-3-methoxynaphthalene-2-carboxamide] | 0.9 | 14 | –
2 | COc1cc2c(OC[C@H]3NC(=O)[C@H]4C3[C@H]4F)nccc2cc1C(N)=O (stereo in doubt) [Example 334, 1-(((1R,2S,5R,6R)-6-fluoro-4-oxo-3-azabicyclo[3.1.0]hexan-2-yl)methoxy)-7-methoxyisoquinoline-6-carboxamide] | 4.2 | 1770 | –
3 | CC(C)Oc1cc2c(OC[C@@H]3CCC(=O)N3)nccc2cc1C#N [Example 03, 1-{[(2S)-5-oxopyrrolidin-2-yl]methoxy}-7-(propan-2-yloxy)isoquinoline-6-carbonitrile] | 575 | 2740 | –
4 | CC(C)Oc1cc2c(OC[C@@H]3COC(=O)N3)nccc2cc1C(N)=O [Example 04, 1-{[(4R)-2-oxo-1,3-oxazolidin-4-yl]methoxy}-7-(propan-2-yloxy)isoquinoline-6-carboxamide] | 6.6 | 1800 | –
5 | CC(C)Oc1cc2c(OC[C@@H]3CCCC(=O)N3)nccc2cc1C(N)=O [Example 06, 1-{[(2S)-6-oxopiperidin-2-yl]methoxy}-7-(propan-2-yloxy)isoquinoline-6-carboxamide] | 51 | 472 | –
6 | CC(C)Oc1cc2c(OC[C@@H]3CC(C)(C)C(=O)N3)nccc2cc1C(N)=O [Example 110, 1-{[(2S)-4,4-dimethyl-5-oxopyrrolidin-2-yl]methoxy}-7-(propan-2-yloxy)isoquinoline-6-carboxamide] | 418 | 1170 | –
7 | CC(C)Oc1cc2c(OC[C@@H]3CC(F)C(=O)N3)nccc2cc1C(N)=O (stereo partly drawn) [Example 112, 1-{[(2S)-4-fluoro-5-oxopyrrolidin-2-yl]methoxy}-7-(propan-2-yloxy)isoquinoline-6-carboxamide] | 1 | 50 | –
8 | CC(C)Oc1cc2c(OC[C@@H]3CCC(=O)N3)cccc2cc1C(N)=O [Example 114, 5-{[(2S)-5-oxopyrrolidin-2-yl]methoxy}-3-(propan-2-yloxy)naphthalene-2-carboxamide] | 0.7 | 33 | –
9 | CCOc1cc2c(OC[C@@H]3C[C@](C)(F)C(=O)N3)ccnc2cc1C(N)=O [Example 287, 6-ethoxy-4-{[(2S,4S)-4-fluoro-4-methyl-5-oxopyrrolidin-2-yl]methoxy}quinoline-7-carboxamide] | – | 2300 | –
10 | COc1cc2c(OC[C@@H]3NC(=O)[C@H](F)[C@@H]3C)nccc2cc1C(N)=O [Example 288, 1-{[(2R,3R,4R)-4-fluoro-3-methyl-5-oxopyrrolidin-2-yl]methoxy}-7-methoxyisoquinoline-6-carboxamide] | – | 1810 | –
11 | COc1cc2c(OC[C@@H]3C[C@@H](C4(O)CCOCC4)C(=O)N3)nccc2cc1C(N)=O [Example 289, 1-{[(2S,4S)-4-(4-hydroxytetrahydro-2H-pyran-4-yl)-5-oxopyrrolidin-2-yl]methoxy}-7-methoxyisoquinoline-6-carboxamide] | – | 6270 | –
12 | COC[C@]1(F)C[C@@H](COc2nccc3cc(C(N)=O)c(OC)cc23)NC1=O [Example 292, 1-{[(2S,4R)-4-fluoro-4-(methoxymethyl)-5-oxopyrrolidin-2-yl]methoxy}-7-methoxyisoquinoline-6-carboxamide] | – | 3140 | –
13 | CCOc1cc2c(OC[C@@H]3C[C@@](F)(CF)C(=O)N3)ccnc2cc1C(N)=O [Example 293, 6-ethoxy-4-{[(2S,4S)-4-fluoro-4-(fluoromethyl)-5-oxopyrrolidin-2-yl]methoxy}quinoline-7-carboxamide] | – | 462 | –
14 | CCOc1cc2c(OC[C@@H]3C[C@@](F)(CF)C(=O)N3)nccc2cc1C(N)=O [Example 294, 7-ethoxy-1-{[(2S,4S)-4-fluoro-4-(fluoromethyl)-5-oxopyrrolidin-2-yl]methoxy}isoquinoline-6-carboxamide] | – | 24 | –
15 | COc1cc2c(OC[C@H]3NC(=O)[C@@H]4C[C@]34C)nccc2cc1C(N)=O [Example 295, 7-methoxy-1-{[(1S,2S,5R)-1-methyl-4-oxo-3-azabicyclo[3.1.0]hex-2-yl]methoxy}isoquinoline-6-carboxamide] | – | 67 | –
16 | COc1cc2c(OC[C@H]3NC(=O)[C@]4(C)C[C@H]34)nccc2cc1C(N)=O [Example 297, 7-methoxy-1-{[(1S,2S,5R)-5-methyl-4-oxo-3-azabicyclo[3.1.0]hex-2-yl]methoxy}isoquinoline-6-carboxamide] | – | 7120 | –
17 | CC[C@]12C[C@H]1C(=O)N[C@@H]2COc1nccc2cc(C(N)=O)c(OC)cc12 [Example 299, 1-{[(1S,2S,5R)-1-ethyl-4-oxo-3-azabicyclo[3.1.0]hex-2-yl]methoxy}-7-methoxyisoquinoline-6-carboxamide] | – | 49 | –
18 | CC[C@@H]1[C@H]2C(=O)N[C@H](COc3nccc4cc(C(N)=O)c(OC)cc34)[C@@H]12 [Example 300, 1-{[(1S,2S,5R)-6-ethyl-4-oxo-3-azabicyclo[3.1.0]hex-2-yl]methoxy}-7-methoxyisoquinoline-6-carboxamide] | – | 931 | –
19 | COc1cc2c(OC[C@@H]3CCCC(=O)N3)nccc2cc1C(N)=O [Example 302, 7-methoxy-1-{[(2S)-6-oxopiperidin-2-yl]methoxy}isoquinoline-6-carboxamide] | – | 1280 | –
20 | COc1cc2c(OC[C@H]3NC(=O)C[C@H]3C3CC3)nccc2cc1C(N)=O [Example 305, 1-{[(2S,3S)-3-cyclopropyl-5-oxopyrrolidin-2-yl]methoxy}-7-methoxyisoquinoline-6-carboxamide] | – | 57 | –
21 | COc1cc2c(OC[C@H]3NC(=O)[C@@H]4CC[C@H]34)nccc2cc1C(N)=O [Example 308, 7-methoxy-1-{[(1S,2S,5R)-4-oxo-3-azabicyclo[3.2.0]hept-2-yl]methoxy}isoquinoline-6-carboxamide] | – | 134 | –
22 | [2H]C([2H])([2H])Oc1cc2c(OC[C@H]3NC(=O)[C@@H](F)[C@H]3CC)nccc2cc1C(N)=O [Example 338, 1-{[(2S,3S,4S)-3-ethyl-4-fluoro-5-oxopyrrolidin-2-yl]methoxy}-7-[(trideutero)methyloxy]isoquinoline-6-carboxamide] | – | – | 3
23 | [2H]C([2H])([2H])C([2H])([2H])[C@@H]1[C@H](F)C(=O)N[C@@H]1COc1nccc2cc(C(N)=O)c(OC)cc12 [Example 344, 1-{[(2S,3S,4S)-3-(pentadeutero)ethyl-4-fluoro-5-oxopyrrolidin-2-yl]methoxy}-7-methoxyisoquinoline-6-carboxamide] | – | – | 0.5
24 | CC[C@@H]1[C@@H](COc2nccc3cc(C(N)=O)c(OC)cc23)NC(=O)[C@@H]1F [Example 346, 1-{[(2S,3R,4R)-3-ethyl-4-fluoro-5-oxopyrrolidin-2-yl]methoxy}-7-methoxyisoquinoline-6-carboxamide] | – | – | 150
25 | [2H][C@]1(CC)[C@@H](COc2nccc3cc(C(N)=O)c(OC)cc23)NC(=O)[C@@]1([2H])F [Example 374, 1-{[(2S,3S,4S)-3-ethyl-4-fluoro-5-oxo(3,4-bisdeutero)pyrrolidin-2-yl]methoxy}-7-methoxyisoquinoline-6-carboxamide] | – | – | 1.2
